Measured values taken from the supplement of paper PMC11061612.

Experiments:
Assay in all cases: combination Emax (second highest fraction inhibited in the dose matrix, 72 h); higher = more inhibition; extreme values may be limits of the assay
[1] = test system: A4-Fuk (B-Lymphoblastic Leukemia)
Outline: (§1)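 Cell lines grown in DMEM/F12 or RPMI with 10% FBS were plated in 1536-well plates and held 24 hours at 37°C, 5% CO2 before 72 hours of exposure to two-drug dose matrices, with DMSO typically at 0.2%. CellTiter-Glo 2.0 luminescence gave viability, which was converted to inhibition. Vehicle wells were set to 0 and blank wells to 1. Combination Emax is the second-highest inhibition in the matrix, and Bliss excess is the observed combination effect minus the expected EA + EB − EA·EB, where EA and EB are the single-agent effects.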

[2] = test system: HAL-01 (B-Lymphoblastic Leukemia)
Outline: as §1

Hey (Ovarian Carcinoma) = test system: Hey (Ovarian Carcinoma)
Outline: as §1

[3] = test system: NCI-H1993 (Lung Adenocarcinoma)
Outline: as §1

SMILES | combination Emax [1] | combination Emax [2] | combination Emax (Hey (Ovarian Carcinoma)) | combination Emax [3]
Cc1c2c(nn1C)CSCc1cc(n(C)n1)CSc1cc(c3ccccc3c1)OCCCc1c(C(=O)O)n(C)c3c-2c(Cl)ccc13 [AZD5991] + C[C@@H]1COCCN1C2=NC(=NC(=C2)C3(CC3)[S@](=N)(=O)C)C4=C5C=CNC5=NC=C4 [AZD6738] (first compound max 1 µM, 7x7, partner max 10 µM) | 1 | 0.987 | 0.806 | 0.517
CN(C)CCCOc1ccc(-c2ccc3ncc4c(c3c2)n(C2CCOCC2)c(=O)n4C)cn1 [AZD0156] + C[C@@H]1COCCN1C2=NC(=NC(=C2)C3(CC3)[S@](=N)(=O)C)C4=C5C=CNC5=NC=C4 [AZD6738] (first compound max 1 µM, 7x7, partner max 10 µM) | 0.734 | 0.988 | 0.84 | 0.616
COc1nnc2ccc(N3CCC(c4ccc(OCCN5CCN(C)C(=O)[C@H]5C)cc4)CC3)nn12 [AZD5153] + C[C@@H]1COCCN1C2=NC(=NC(=C2)C3(CC3)[S@](=N)(=O)C)C4=C5C=CNC5=NC=C4 [AZD6738] (first compound max 1 µM, 7x7, partner max 10 µM) | 0.882 | 0.965 | 0.796 | 0.738
COc1cccc(OCCCN)c1-c1cc(Nc2cnc(C#N)cn2)n[nH]1 [Prexasertib] + CCc1c2c(nc3ccc(O)cc13)-c1cc3c(c(=O)n1C2)COC(=O)[C@]3(O)CC [SN-38] (first compound max 1 µM, 7x7, partner max 0.3 µM) | 0.972 | 1 | 0.843 | 0.938
CC1(C)CCC(CN2CCN(c3ccc(C(=O)NS(=O)(=O)c4ccc(NCC5CCOCC5)c([N+](=O)[O-])c4)c(Oc4cnc5[nH]ccc5c4)c3)CC2)=C(c2ccc(Cl)cc2)C1 [Venetoclax] + COc1cc(Nc2ncc3c(n2)-c2ccc(Cl)cc2C(c2c(F)cccc2OC)=NC3)ccc1C(=O)O [Alisertib] (first compound max 1 µM, 7x7, partner max 10 µM) | 0.822 | 1 | 0.61 | 0.308
Cc1c2c(nn1C)CSCc1cc(n(C)n1)CSc1cc(c3ccccc3c1)OCCCc1c(C(=O)O)n(C)c3c-2c(Cl)ccc13 [AZD5991] + C=CCn1c(=O)c2cnc(Nc3ccc(N4CCN(C)CC4)cc3)nc2n1-c1cccc(C(C)(C)O)n1 [AZD1775] (first compound max 1 µM, partner max 1 µM) | 1 | 0.907 | 0.59 | 0.629
